Test results taken from patent US10682371B2, “Small molecule conjugates specifically activated in tumor microenvironment for targeting and use thereof” (priority 2014, dated 2020).

Experiments:
Human colon cancer HT-29 = experiment: Multiple tumor models in nude mice: HT-29; format: in vivo
Experimental: (§1) 1) Corresponding tumor cells were purchased from American type culture collection (ATCC) and identified according the specification provided by ATCC. Cells were cultivated in DMEM culture solution containing 10% fetal bovine serum at 37° C. and 5% CO2. The cells were passaged for every three days and cells within the 15th passage were used.
(§2) 2) Production of tumor. 5×10^6 corresponding cells were subcutaneously injected to the back of the nude mice. Mice were randomly grouped after the tumor reached at least 100 mm^3. Then treatment began and the day on which the treatment began was day 1.
(§3) 3) Course of treatment. […] The control group was administered by physiological saline. Animals were administered once weekly for three weeks.
(§4) 3) Course of treatment. According to the clinical application of A1, A1 was administered in a dose of ⅙ MTD, i.v., 17.6 μmol/kg. The control group was administered by physiological saline. Animals were administered once weekly for three weeks.
(§5) 3) Course of treatment. According to the clinical application of B1, B1 was administered in a dose of ⅙ MTD, i.v., 17.6 μmol/kg. The control group was administered by physiological saline. Animals were administered once weekly for three weeks.
as §3, §3

[1] = tested on: Human chronic leukemia K562; experiment: Multiple tumor models in nude mice: K562; format: in vivo
Experimental: as §1, §2, §3, §4, §5, §3, §3

[2] = tested on: Human pancreatic cancer Panc-1; experiment: Multiple tumor models in nude mice: Panc-1; format: in vivo
Experimental: as §1, §2, §3, §4, §5, §3, §3

[3] = Multiple tumor models in nude mice: HT1080; format: in vivo; settings: Human colon caner HT1080
Experimental: as §1, §2, §3, §4, §5, §3, §3

[4] = tested on: Human breast cancer MDA-MB435; experiment: Multiple tumor models in nude mice: MDA-MB435; format: in vivo
Experimental: as §1, §2, §3, §4, §5, §3, §3

Human liver cancer Hepg2 = experiment: Multiple tumor models in nude mice: Hepg2; format: in vivo
Experimental: as §1, §2, §3, §4, §5, §3, §3

[5] = tested on: Human non-small cell lung cancer A549; experiment: Multiple tumor models in nude mice: A549; format: in vivo
Experimental: as §1, §2, §3, §4, §5, §3, §3

[6] = tested on: Human breast cancer MDA-MB231 cells; format: in vivo, nude mice; settings: for Effect on tumor growth, in words: compared to control, camptothecin, capecitabine and daunorubicin groups
Experimental: as §1, with “Human breast cancer MDA-MB231” for “Corresponding tumor”, “[…] (DMEM” for “DMEM”, “medium)” for “solution”
2) Production of tumor. 5×10^6 MDA-MB231 cells were subcutaneously injected to the back of the nude mice. Mice were randomly grouped after the tumor reached at least 100 mm^3. Then treatment began and the day on which the treatment began was day 1.
3) Course of treatment. […] The drugs were administered once weekly for four weeks.
When R1 is 2-(2-Methoxyethoxy)Acetyl, and R3 is Ala, activation study and efficacy study were carried out by using compounds having different cleavable linker. The study methods are identical to those in Examples 10, 11 and 12. The in vitro activation efficiency was tested by asparagine endopeptidase and the tumor inhibition rate was tested by using human breast cancer MDA-MB231 model. […]

HEK293 cells = format: cell-based; settings: for Cytoxicity reduced (Multiple): HEK293, 72 hours, MTT, IC50 of modified compound compared to its corresponding cytotoxic compound, approximate multiples
Experimental: Toxicity detection method: a standard universal test program was used to perform the in vitro cytotoxicity test. 2500 HEK293 cells were cultured in a 96-well plate, and allowed to grow overnight. Cytotoxic compounds and their corresponding conjugated compounds were added into each well in different concentrations, cultivated with the cells at 37° C. for 72 hours, and then treated with MTT reagents. OD changes were read. The approximate multiples of the toxicity change were obtained by comparing the IC50 of the modified compounds to their corresponding cytotoxic compounds.

[7] = Table 41, i.v. 17.6 μmol/kg once weekly for three weeks
[8] = S1′ i.v. 17.6 μmol/kg once weekly for three weeks
[9] = Table 51, 25 mg/kg once weekly for three weeks
[10] = MDA-MB231, nude mice, IV 13.2 μmol/kg once weekly for four weeks, Day 10
[11] = MDA-MB231, nude mice, IV 13.2 μmol/kg once weekly for four weeks, Day 24
[12] = Table 29, i.v. 17.6 μmol/kg once weekly for three weeks

For `COCCOCC(=O)NCCCC[C@H](NC(=O)COCCOC)C(=O)N[C@H](C)C(=O)N[C@H](C)C(=O)N[C@H](CC(N)=O)C(=O)Nc1ccc(COC(=O)OC(C(=O)OC2C[C@@]3(O)[C@@H](OC(=O)c4ccccc4)[C@H]4[C@](C)(C(=O)[C@H](O)C(=C2C)C3(C)C)[C@@H](O)CC2OC[C@]24OC(C)=O)[C@@H](NC(=O)OC(C)(C)C)c2ccccc2)cc1` (stereo partly shown) [Compound B1], which “inhibitory rate on tumor (Day 26)” value (Human colon cancer HT-29; [7]) is on record?
The value was 74.56%.

What about the “inhibitory rate on tumor (Day 26)” value [1, 7] of the same molecule?
The value was 72.56%.

And the “inhibitory rate on tumor (Day 26)” value [2, 7]?
The value was 73.56%.

What about the “inhibitory rate on tumor (Day 26)” value [3, 7] of the same molecule?
The value was 84.46%.

What about the “inhibitory rate on tumor (Day 26)” value [4, 7] of the same molecule?
The value was 78.84%.

And the “inhibitory rate on tumor (Day 26)” value (Human liver cancer Hepg2; [7])?
The value was 81.56%.

What about the “inhibitory rate on tumor (Day 26)” value [5, 7] of the same molecule?
Its value is 74.56%.

Which “inhibitory rate on tumor (Day 26)” value (Human colon cancer HT-29; [8]) does the source give for `COCCOCC(=O)N[C@H](C)C(=O)N[C@H](C)C(=O)N[C@H](CC(N)=O)C(=O)Nc1ccc(COC(=O)OC(C(=O)OC2C[C@@]3(O)C(OC(=O)c4ccccc4)[C@@H]4C5(OC(C)=O)COC5C[C@H](O)[C@@]4(C)C(=O)[C@H](OC(C)=O)C(=C2C)C3(C)C)[C@@H](NC(=O)c2ccccc2)c2ccccc2)cc1` (stereo in doubt) [S1′, 2-(2-methoxyethoxy) acetylamino-L-Ala-L-Ala-L-Asn-p-amino-benzyl-paclitaxel] here?
The value was 89.7%.

And the “inhibitory rate on tumor (Day 26)” value [1, 8]?
The value was 77.9%.

What about the “inhibitory rate on tumor (Day 26)” value [2, 8] of the same molecule?
The value was 88.59%.

What about the “inhibitory rate on tumor (Day 26)” value [3, 8] of the same molecule?
Its value is 94.3%.

And the “inhibitory rate on tumor (Day 26)” value [4, 8]?
Its value is 90.7%.

And the “inhibitory rate on tumor (Day 26)” value (Human liver cancer Hepg2; [8])?
Its value is 84.3%.

What about the “inhibitory rate on tumor (Day 26)” value [5, 8] of the same molecule?
Its value is 94.6%.

For `COCCOCC(=O)N[C@H](C)C(=O)N[C@H](C)C(=O)N[C@H](CC(N)=O)C(=O)Nc1ccc(COC(=O)OC(C(=O)OC2C[C@@]3(O)[C@@H](OC(=O)c4ccccc4)[C@H]4[C@](C)(C(=O)[C@H](O)C(=C2C)C3(C)C)[C@@H](O)CC2OC[C@]24OC(C)=O)[C@@H](NC(=O)OC(C)(C)C)c2ccccc2)cc1` (stereo partly drawn) [Compound D1, 2-(2-methoxyethoxy) acetyl-L-Ala-L-Ala-L-Asn-4-amino benzyl-Docetaxel], which “inhibitory rate on tumor (Day 26)” value (Human colon cancer HT-29; [9]) is on record?
The value was 68.6%.

And the “inhibitory rate on tumor (Day 26)” value [1, 9]?
The value was 84.6%.

What about the “inhibitory rate on tumor (Day 26)” value [2, 9] of the same molecule?
Its value is 89.4%.

And the “inhibitory rate on tumor (Day 26)” value [3, 9]?
The value was 94.6%.

What about the “inhibitory rate on tumor (Day 26)” value [4, 9] of the same molecule?
Its value is 93.5%.

And the “inhibitory rate on tumor (Day 26)” value (Human liver cancer Hepg2; [9])?
The value was 75.7%.

And the “inhibitory rate on tumor (Day 26)” value [5, 9]?
The value was 90.4%.

Which “Size of tumor (mm^3) Day 10” value [6, 10] does the source give for `CCCCCOC(=O)Nc1nc(=O)n([C@@H]2O[C@H](C)[C@@H](OC(=O)OCc3ccc(NC(=O)[C@H](CC(N)=O)NC(=O)[C@H](C)NC(=O)[C@H](C)NC(=O)CCCCCCC(=O)NO)cc3)[C@H]2O)cc1F` [Compound S3, 4-N—(N—(N—(N-(8-(N-hydroxylamino)-1,8-octandioic acid-1-monoacyl)-L-alanyl)-L-alanyl)-L-asparaginyl)-amino benzyl alcohol-capecitabine-carbonic acid diester] here?
The value was 85.67 ± 36.42 mm^3.

And the “Size of tumor (mm^3) Day 24” value [6, 11]?
Its value is 0 mm^3.

What about the “Effect on tumor growth, in words” value [6] of the same molecule?
Its value is “strong inhibitory effect on tumor growth”.

And the “Cytoxicity reduced (Multiple)” value (HEK293 cells)?
Its value is 78 Multiple.

For “4-N—(N—(N—(N-(6-maleimido caproyl)-L-alanyl)-L-alanyl)-L-asparaginyl)-amino benzyl alcohol-MMAE-carbamate [Compound S6]”, which “Inhibitory rate on tumor (%) Day 10” value [6, 10] is on record?
Its value is 23%.

What about the “Size of tumor (mm^3) Day 10” value [6, 10] of the same molecule?
Its value is 235.5 ± 56.3 mm^3.

What about the “Inhibitory rate on tumor (%) Day 24” value [6, 11] of the same molecule?
Its value is 45.3%.

And the “Effect on tumor growth, in words” value [6]?
Its value is “less efficacy”.

And the “tumor inhibition rate (%)” value ([6]; human breast cancer MDA-MB231 model, different cleavable linkers)?
Its value is 45.4%.

And the “Cytoxicity reduced (Multiple)” value (HEK293 cells)?
Its value is 35 Multiple.

What about the “Cytoxicity reduced (Multiples)” value (HEK293 cells; different cleavable linkers of MMAE and Doxorubicin) of the same molecule?
The value was 35 Multiples.

With `COCCOCC(=O)NCCCC[C@H](NC(=O)COCCOC)C(=O)N[C@H](C)C(=O)N[C@H](C)C(=O)N[C@H](CC(N)=O)C(=O)Nc1ccc(COC(=O)OC(C(=O)OC2C[C@@]3(O)[C@@H](OC(=O)c4ccccc4)[C@H]4[C@](C)(C(=O)[C@H](OC(C)=O)C(=C2C)C3(C)C)[C@@H](O)CC2OC[C@]24OC(C)=O)[C@@H](NC(=O)c2ccccc2)c2ccccc2)cc1` (stereo partly shown) [Compound A1] as the molecule, how does the “inhibitory rate on tumor (Day 26)” value (Human colon cancer HT-29; [12]) read?
The value was 87.5%.

What about the “inhibitory rate on tumor (Day 26)” value [1, 12] of the same molecule?
Its value is 76.9%.

And the “inhibitory rate on tumor (Day 26)” value [2, 12]?
Its value is 89.2%.

What about the “inhibitory rate on tumor (Day 26)” value [3, 12] of the same molecule?
The value was 95.6%.

And the “inhibitory rate on tumor (Day 26)” value [4, 12]?
The value was 91.2%.

And the “inhibitory rate on tumor (Day 26)” value (Human liver cancer Hepg2; [12])?
The value was 85.4%.

What about the “inhibitory rate on tumor (Day 26)” value [5, 12] of the same molecule?
The value was 95.3%.

For `COc1cccc2c1C(=O)c1c(O)c3c(c(O)c1C2=O)C[C@@](O)(C(C)=O)C[C@@H]3O[C@H]1C[C@H](NC(=O)OCc2ccc(NC(=O)[C@H](CC(N)=O)NC(=O)[C@H](C)NC(=O)[C@H](C)NC(=O)CCCCCN3C(=O)C=CC3=O)cc2)[C@H](O)[C@H](C)O1` [Compound S5, 4-N—(N—(N—(N-(6-maleimidocaproyl)-L-alanyl)-L-alanyl)-L-asparaginyl)-amino benzyl alcohol-daunorubicin-carbamate], which “Size of tumor (mm^3) Day 10” value [6, 10] is on record?
The value was 63.67 ± 46.64 mm^3.

And the “Size of tumor (mm^3) Day 24” value [6, 11]?
The value was 46.45 ± 19.43 mm^3.

And the “Effect on tumor growth, in words” value [6]?
Its value is “strong inhibitory effect on tumor growth”.

And the “Cytoxicity reduced (Multiple)” value (HEK293 cells)?
The value was 125 Multiple.
